Laboratory results from patent US12240844B2 (Voronoi, Inc., priority 2019, dated 2025).

Key:
MDA-MB-231 cell line = assay: MDA-MB-231 cancer cell proliferation inhibition (Cell Titer-Glo); type: cell-based; details: Homo sapiens, MDA-MB-231 triple-negative breast cancer cell line, 72 hours
Summary of the method: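 GI50 comes from CellTiter-Glo luminescence, read 10 min after reagent addition at RT, following 72 h compound treatment. Eleven concentrations were used (⅓ steps, highest 10 μM final) on 2000 cells/well. MDA-MB-231 and MDA-MB-468 were grown in DMEM, SHP-77 in RPMI.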

TTK = biological target: T1, TTK (Homo sapiens, UniProt P33981); assay: TTK enzyme inhibition, ADP-Glo kinase assay; type: biochemical; set-up: purchased Signalchem T20-10G; details: ATP 5 μM
T1 sequence (P33981 1-857): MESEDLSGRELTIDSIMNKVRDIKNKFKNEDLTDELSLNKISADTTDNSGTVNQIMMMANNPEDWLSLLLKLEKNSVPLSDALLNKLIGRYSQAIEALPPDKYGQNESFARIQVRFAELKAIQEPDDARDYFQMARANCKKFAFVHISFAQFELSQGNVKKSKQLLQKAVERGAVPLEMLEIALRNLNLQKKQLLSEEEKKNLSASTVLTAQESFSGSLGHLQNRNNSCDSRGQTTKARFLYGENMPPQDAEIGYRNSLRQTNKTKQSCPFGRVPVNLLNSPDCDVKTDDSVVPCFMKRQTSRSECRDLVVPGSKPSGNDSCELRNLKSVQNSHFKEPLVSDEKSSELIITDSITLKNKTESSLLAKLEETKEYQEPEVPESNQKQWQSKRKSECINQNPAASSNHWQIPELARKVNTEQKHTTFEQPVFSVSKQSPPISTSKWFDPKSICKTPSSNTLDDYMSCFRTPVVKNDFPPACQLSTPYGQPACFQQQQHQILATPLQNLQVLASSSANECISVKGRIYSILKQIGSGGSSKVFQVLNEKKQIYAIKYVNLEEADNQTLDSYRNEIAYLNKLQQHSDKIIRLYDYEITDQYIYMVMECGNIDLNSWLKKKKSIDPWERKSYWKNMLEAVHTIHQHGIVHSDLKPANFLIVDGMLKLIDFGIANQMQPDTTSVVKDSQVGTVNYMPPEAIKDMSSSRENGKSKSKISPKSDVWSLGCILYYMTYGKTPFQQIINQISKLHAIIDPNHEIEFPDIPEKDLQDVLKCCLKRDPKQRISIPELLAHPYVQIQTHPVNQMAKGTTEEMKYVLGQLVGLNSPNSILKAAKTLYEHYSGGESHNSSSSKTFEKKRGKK
Procedure: In order to evaluate the inhibitory activity of the compounds according to the present invention on LRRK2, LRRK2 (G2019S), DYRK1, CLK1 and TTK kinases, the following experiment was performed.
Example compounds were reacted with the purified human TTK (Signalchem #T20-10G) enzyme to evaluate the enzyme inhibitory ability as follows. The reaction buffer was used as the composition of 40 mM Tris-HCl pH7.4, 20 mM MgCl2, 0.1 mg/ml BSA (5× kinase buffer, Signalchem #K03-09) and 50 μM DTT (Signalchem #D86-09B), and the reaction of all test materials was performed on the reaction buffer. The compound was diluted with 10 mM DMSO stock in […] by a serial dilution method, and the enzyme activity was measured at the final compound concentrations of 1, 0.333333, 0.111111, 0.037037, 0.012346, 0.004115, 0.001372, 0.000457, 0.000152, 0.000051 and 0.000017 μM. In the test, the human TTK (7.5 ng) enzyme was reacted with the purified ATP (5 μM, Promega #V6930) and an MBP enzyme substrate (0.2 μg, Signalchem M42-51N) at 25° C. for 4 hours, and then the enzyme activity was identified using the in vitro ADP-Glo™ kinase assay (Promega #V6930). The enzyme activity reaction liquid, an ADP-Glo reaction liquid and an enzyme potency detection solution were reacted in a ratio of 2:2:1, and the degree of inhibition of enzyme activity was measured by luminescence. The degree of inhibition of enzyme activity according to the treatment concentrations of the respective compounds was calculated based on the luminescence degree of the enzyme activity of a solvent control group that was not treated with the compound, where the concentration of each compound to inhibit enzyme activity inhibition by 50% was determined as an IC50 (nM) value and obtained using Prism (Version 8.2, GraphPad) software.
In the table below, the following designations were used for the evaluation of enzyme inhibitory ability.

Row | Structure (SMILES) | GI50 (MDA-MB-231 cell line) [nM] | IC50 (TTK) [nM]
1 | COc1cc(P2(=O)CCN(C(C)=O)CC2)ccc1Nc1cc(C2CC2)c2c(C(F)(F)F)c[nH]c2n1 [Example 48, 1-(4-(4-((4-cyclopropyl-3-(trifluoromethyl)-1H-pyrrolo[2,3-b]pyridin-6-yl)amino)-3-methoxyphenyl)-4-oxido-1,4-azaphosphinan-1-yl)ethan-1-one] | 301 to 1000 | 301 to 1000
2 | O=C(c1ccc(Nc2cc(C3CC3)c3c(C(F)(F)F)c[nH]c3n2)c2c1OCO2)N1CCC(N2CCOCC2)CC1 [Example 49, (7-((4-cyclopropyl-3-(trifluoromethyl)-1H-pyrrolo[2,3-b]pyridin-6-yl)amino)benzo[d][1,3]dioxol-4-yl)(4-morpholinopiperidin-1-yl)methanone] | 301 to 1000 | < 100
3 | COCCNc1cc(Nc2ccc(C(=O)N3CCC(N4CCOCC4)CC3)c3c2OCC3)nc2[nH]cc(C(F)(F)F)c12 [Example 55, (7-((4-((2-methoxyethyl)amino)-3-(trifluoromethyl)-1H-pyrrolo[2,3-b]pyridin-6-yl)amino)-2,3-dihydrobenzofuran-4-yl)(4-morpholinopiperidin-1-yl)methanone] | 301 to 1000 | 101 to 300
4 | O=C(c1ccc(Nc2cc(NC3CC3)c3c(C(F)(F)F)c[nH]c3n2)c2c1CCO2)N1CCC(N2CCOCC2)CC1 [Example 92, (7-((4-(cyclopropylamino)-3-(trifluoromethyl)-1H-pyrrolo[2,3-b]pyridin-6-yl)amino)-2,3-dihydrobenzofuran-4-yl)(4-morpholinopiperidin-1-yl)methanone] | 301 to 1000 | < 100
5 | O=C(c1ccc(Nc2cc(C3CC3)c3c(C(F)(F)F)c[nH]c3n2)c2c1CCO2)N1CCC(N2CCOCC2)CC1 [Example 93, (7-((4-cyclopropyl-3-(trifluoromethyl)-1H-pyrrolo[2,3-b]pyridin-6-yl)amino)-2,3-dihydrobenzofuran-4-yl)(4-morpholinopiperidin-1-yl)mthanone] | 301 to 1000 | 301 to 1000
6 | CCNc1cc(Nc2ccc(S(=O)(=O)N3CCC(N4CCOCC4)CC3)c3c2OCCO3)nc2[nH]cc(C(F)(F)F)c12 [Example 96, N^4-ethyl-N^6-(8-((4-morpholonopiperidin-1-yl)sulfonyl)-2,3-dihydrobenzo [b] [1,4]dioxin-5-yl)-3-(trifluoromethyl)-1H-pyrrolo[2,3-b]pyridine-4,6-diamine] | 301 to 1000 | –
7 | CNc1cc(Nc2ccc(P3(=O)CCN(C4CC4)CC3)cc2OC)nc2[nH]cc(C#N)c12 [Example 146, 6-((4-(1-cyclopropyl-4-oxido-1,4-azaphosphinan-4-yl)-2-methoxyphenyl)amino)-4-(methylamino)-1H-pyrrolo[2,3-b]pyridine-3-carbonitrile] | 301 to 1000 | < 100
8 | COCCNc1cc(Nc2ccc(P3(=O)CCN(C4CC4)CC3)cc2OC)nc2[nH]cc(C#N)c12 [Example 148, 6-((4-(1-cyclopropyl-4-oxido-1,4-azaphosphinan-4-yl)-2-methoxyphenyl)amino)-4-((2-methoxyethyl)amino)-1H-pyrrolo[2,3-b]pyridine-3-carbonitrile] | 301 to 1000 | < 100
9 | CNc1cc(Nc2ccc(S(=O)(=O)N3CCC(N4CCOCC4)CC3)cc2OC)nc2[nH]cc(C(F)(F)F)c12 [Example 184, N^6-(2-methoxy-4-((4-morpholinopiperidin-1-yl)sulfonyl)phenyl)-N^4-methyl-3-(trifluoromethyl)-1H-pyrrolo[2,3-b]pyridine-4,6-diamine] | 301 to 1000 | < 100
10 | CNc1cc(Nc2ccc(P3(=O)CCN(C4CC4)CC3)cc2OC)nc2[nH]cc(C(F)(F)F)c12 [Example 205, 1-cyclopropyl-4-(3-methoxy-4-((4-(methylamino)-3-(trifluoromethyl)-1H-pyrrolo[2,3-b]pyridin-6-yl)amino)phenyl)-1,4-azaphosphinane 4-oxide] | 301 to 1000 | < 100
11 | CNc1cc(Nc2ccc(C(=O)N3CC[C@H](N4CCOCC4)C3)c3c2OCC3)nc2[nH]cc(C(F)(F)F)c12 [Example 217, (S)-(7-((4-(methylamino)-3-(trifluoromethyl)-1H-pyrrolo[2,3-b]pyridin-6-yl)amino)-2,3-dihydrobenzofuran-4-yl)(3-morpholinopyrrolidin-1-yl)methanone] | 301 to 1000 | < 100
12 | O=C(c1ccc(Nc2cc(C3CC3)c3c(C(F)(F)F)c[nH]c3n2)c2c1OCCO2)N1CCOCC1 [Example 220, (8-((4-cyclopropyl-3-(trifluoromethyl)-1H-pyrrolo[2,3-b]pyridin-6-yl)amino)-2,3-dihydrobenzo[b] [1,4]dioxin-5-yl)(morpholino) methanone] | 301 to 1000 | < 100
13 | O=C(c1ccc(Nc2cc(C3CC3)c3c(C(F)(F)F)c[nH]c3n2)c2c1OCCO2)N1CCC(N2CCOCC2)CC1 [Example 221, (8-((4-cyclopropyl-3-(trifluoromethyl)-1H-pyrrolo[2,3-b]pyridin-6-yl)amino)-2,3-dihydrobenzo [b] [1,4]dioxin-5-yl)(4-morpholinopiperidin-1-yl)methanone] | 301 to 1000 | < 100
14 | COc1cc(S(=O)(=O)N2CCOCC2)ccc1Nc1cc(C2CC2)c2c(C(F)(F)F)c[nH]c2n1 [Example 222, 4-cyclopropyl-N-(2-methoxy-4-(morpholinosulfonyl)phenyl)-3-(trifluoromethyl)-1H-pyrrolo[2,3-b]pyridin-6-amine] | 301 to 1000 | < 100
15 | N#Cc1c[nH]c2nc(Nc3ccc(C(=O)N4CCOCC4)c4c3OCCO4)cc(C3CC3)c12 [Example 225, 4-cyclopropyl-6-((8-(morpholine-4-carbonyl)-2,3-dihydrobenzo[b] [1,4]dioxin-5-yl)amino)-1H-pyrrolo[2,3-b]pyridine-3-carbonitrile] | 301 to 1000 | < 100
16 | N#Cc1c[nH]c2nc(Nc3ccc(C(=O)N4CCC(N5CCOCC5)CC4)c4c3OCCO4)cc(C3CC3)c12 [Example 226, 4-cyclopropyl-6-((8-(4-morpholinopiperidine-1-carbonyl)-2,3-dihydrobenzo[b] [1,4]dioxin-5-yl)amino)-1H-pyrrolo[2,3-b]pyridine-3-carbonitrile] | 301 to 1000 | < 100
17 | COc1cc(S(=O)(=O)N2CCOCC2)ccc1Nc1cc(C2CC2)c2c(C#N)c[nH]c2n1 [Example 227, 4-cyclopropyl-6-((2-methoxy-4-(morpholinosulfonyl)phenyl)amino)-1H-pyrrolo[2,3-b]pyridine-3-carbonitrile] | 301 to 1000 | < 100
18 | COc1cc(S(=O)(=O)N2CCC(N3CCOCC3)CC2)ccc1Nc1cc(C2CC2)c2c(C#N)c[nH]c2n1 [Example 228, 4-cyclopropyl-6-((2-methoxy-4-((4-morpholinopiperidin-1-yl)sulfonyl)phenyl)amino)-1H-pyrrolo[2,3-b]pyridine-3-carbonitrile] | 51 to 100 | < 100
19 | O=C(c1ccc(Nc2cc(C3CC3)c3c(C(F)(F)F)c[nH]c3n2)c2c1CCO2)N1CC[C@H](N2CCOCC2)C1 [Example 237, (S)-(7-((4-cyclopropyl-3-(trifluoromethyl)-1H-pyrrolo[2,3-b]pyridin-6-yl)amino)-2,3-dihydrobenzofuran-4-yl)(3-morpholinopyrrolidin-1-yl)methanone] | 301 to 1000 | 101 to 300
